Measured values taken from paper PMC4440766, “Detection of Peptide-Based Nanoparticles in Blood Plasma by ELISA” (PLoS ONE, 2015).

How the values were obtained:
[1] = ELISA quantification of peptide 5A in blood plasma after intravenous injection of peptide 5A nanoparticles; format: in vivo, Wistar rats
Procedure: (§1) The acrylamide based nanoparticles containing peptide 5A were injected in the lateral tail vein of 3 Wistar rats at a concentration of 17.25 mg of nanoparticle per kg of bodyweight, corresponding to 0.5 mg peptide 5A per kg of bodyweight. Blood samples were collected in lithium heparin plasma microtainer tubes (BD, Franklin Lakes, NJ). A small incision was made in the contralateral tail vein and the blood was collected directly into the tube. Immediately after collecting the blood, the tubes were manually inverted 8 times to ensure mixing with the anti-coagulant. Blood samples were stored on ice for up to 30 minutes before separating the plasma by centrifugation at 2000 g for 10 minutes. No hemolysis was observed.
Samples were collected from each animal immediately after injection (time point 0) and at 15, 30, 60, 120, 240, 480 minutes after injection. All plasma samples were stored at -80°C until further analysis.
The plasma samples were diluted 1/500 in PBS, based on the range of the standard curve and the expected initial plasma concentrations. Streptavidin coated ELISA 96-well microplates (Steffens Biotechnische Analysen, Germany) were rinsed with 100 μl PBS per well and incubated with plasma samples in duplicate, for one hour at room temperature. After washing the wells three times with PBS, the carboxyfluorescein group present on the reporter peptide was detected by incubating with monoclonal (mAb) mouse-anti-fluorescein peroxidase-conjugated IgG (Dianova, Hamburg, Germany) diluted 1:100,000 in PBS with 0.1% BSA for one hour. Subsequently, the wells were washed three times with PBS and incubated with soluble high sensitivity TMB (SDT, Baesweiler, Germany) for 10 minutes in the dark. The enzymatic peroxidase reaction was stopped with 1 M HCl and absorbance at 450 nm was measured on a VICTOR X3 Multilabel Plate Reader (Perkin Elmer, Waltham, MA). All incubations were performed at room temperature on a plate shaker at 650 rpm. The wells were washed with PBS three times both after sample and antibody incubation. The TMB reaction was performed in the dark for 10 minutes. […] The absorbance at 450 nm of the negative controls was considered as background and subtracted from the absorbance of the plasma samples.
Free peptide 5A was used as a positive control in the ELISA described above with a lower limit of detection of 1 ng/mL (data not shown). Nanoparticles containing a known concentration of peptide 5A, were used to generate a standard curve for the quantification of blood plasma samples. The standard curve data were fitted to a Hill curve using Graphpad Prism (Graphpad Software, La Jolla, CA) and the Hill equation was used to calculate the concentration of peptide 5A in blood plasma samples from the absorbance at 450 nm (See S1 Table).

[2] = LC/MS quantification of peptide 5A in blood plasma of nanoparticle injected rats; format: in vivo, Wistar rats; settings: same rat plasma samples
Procedure: as §1, with “observed. […]” for “observed.”
Peptide 5A standards were prepared by spiking rat plasma with peptide 5A+B and subsequently reducing the disulfide bond between peptide 5A and 5B, yielding free peptide 5A as depicted in Fig 1. […] (Neither the peaks corresponding to the mass of peptide 5B nor the unreduced peptide 5A+B were analyzed, see LC-MS analysis section). […]
Plasma samples for LC/MS were prepared by adding 300 μL of 10 mM TCEP in loading mobile phase mix to 30 μL of sample. […] The filtrate was transferred to autosampler vials and analyzed or frozen at -80°C until analysis.
Samples with expected concentrations higher than the upper limit of quantification were diluted with rat plasma prior to sample preparation. […]

[3] = i.v. nanoparticles 17.25 mg/kg = 0.5 mg peptide 5A per kg, Wistar rats, n = 3

- peptide 5A plasma concentration (ELISA), highest concentration ([1]; 15 minutes after injection, i.v. lateral tail vein, nanoparticles 17.25 mg/kg = 0.5 mg peptide 5A per kg, male Wistar rats, plasma diluted 1/500 in PBS, mean ± S.E.M., 3 animals): 2706 ± 466 ng/mL
- time after injection up to which the peptide was detected in plasma (ELISA) [1, 3]: up to 2 hours
- time of highest plasma concentration (ELISA) [1, 3]: 15 min
- peptide 5A plasma concentration (ELISA) ([1]; time point 0 (immediately after injection), i.v. lateral tail vein, nanoparticles 17.25 mg/kg = 0.5 mg peptide 5A per kg, male Wistar rats, plasma diluted 1/500 in PBS, mean ± S.E.M., 3 animals): 1661 ± 514 ng/mL
- factor by which plasma concentrations measured by LC/MS were higher than by ELISA [2]: ~4
Substance: napvsipqKGGC [peptide 5A, reporter peptide napvsipqKGGC functionalized with biotin and carboxyfluorescein, attached to nanoparticles]
